Like-named read-outs stand apart in the source and are kept apart here.
How the values were obtained:
[1] = cited from earlier work
HCT116 tumours = experiment: Mouse xenograft tumour growth delay (CDEPT); type: in vivo, NMRI nu/nu mice; settings: prodrug alone, 15 mg/kg i.p., 5 consecutive days
Protocol: Human colorectal HCT116 carcinoma cells were grown in DMEM medium supplemented with 10% FBS, trypsinized and injected subcutaneously in 100 μl PBS/ . . . % matrigel at a concentration of 5.10^6 cells in the abdominal flank of adult NMRI nu/nu mice. As soon as tumours were palpable, tumour volumes were determined three times per week by measuring three orthogonal diameters using calipers. Volumes were calculated according to the formula V=A×B×C×/6. All experiments were conducted in accordance with local institutional guidelines of the University of Leuven, approved by the animal ethics committee and procedures were according to the guidelines defined by the UKCCCR (12). […] Tumour growth delay was determined for each individual tumour within the different groups as the time necessary to reach three times their initial volume at the start of the treatment. […]
Since strains E1 and N1 express stably-integrated NTR under the regulatory control of a strong promoter without inclusion of any antibiotic resistance gene, it was next determined whether administration of these clinically-applicable strains in combination with prodrug administration to tumour-bearing animals would result in anti-tumour efficacy. It was first evaluated whether inactivation of pyrE affected the tumour-colonizing capacity of systemically administered spores. […]

[2] = test system: HinNTR, NTR from Haemophilus influenzae; settings: Theys et al., 2006, cited from earlier work
[3] = test system: E. coli NfsA nitroreductase; settings: Vass et al., 2009, cited from earlier work; for Km: read-out: Km^CB1954
[4] = test system: E. coli NfnB nitroreductase, wild type; settings: Knox et al., 1992, cited from earlier work

SMILES: NC(=O)c1cc(N2CC2)c([N+](=O)[O-])cc1[N+](=O)[O-] [CB1954, 5-(aziridin-1-yl)-2,4-dinitrobenzamide]
- maximum concentration which can be safely achieved in patient serum ([1]; in vivo): 6.3 µM
- peak concentrations in patient sera ([1]; safe doses): 1 to 10 µM
- tumour growth delay (HCT116 tumours): did not result in any effect
- Kcat ([2]; CB1954): 56.2 S^−1
- Km ([2]; read-out: Km^CB1954): 690 µM
- Kcat ([3]; CB1954, cofactor NADH): 2.60 (NADH) S^−1
- Kcat ([3]; CB1954, cofactor NADPH): 20.9 (NADPH) S^−1
- Km ([3]; cofactor NADH): 18 µM
- Km ([3]; cofactor NADPH): 140 µM
- Kcat ([4]; CB1954): 6 S^−1
- Km ([4]; read-out: Km^CB1954): 862 µM
